In patent US9050477B2, “Cosmetic compositions comprising oridonin and new cosmetic uses” (SEDERMA, priority 2009, dated 2015):

Tests used:
chorioallantoic membrane = assay: Anti-redness effect: Het-CAM method; conditions: 5000 ppm aspirin (positive control); SDS irritant; irritant alone 10 +/− 1.63
From the text: b. Evaluation of the Anti-Redness Effect: Het-CAM Method The Het-CAM model is recommended as an alternative method for the evaluation of the irritant effect of cosmetics. The model uses eggs at a very early stage of development since the nervous system is not yet fully developed (JORF No. 300, Dec. 26, 1996). A moderately irritant product induces instantaneous changes in the capillary density of the chorioallantoic membrane. Previously invisible blood vessels become clearly visible under the effect of vasodilatation. This property was exploited to evaluate the effect of the combination of oridonin and darutoside. The combination oridonin+darutoside was applied to the surface of the chorioallantoic membrane and, after incubation, a surfactant, used as an SDS irritant agent, in an appropriate concentration, was applied to the surface of the membrane. A score was determined by an experienced operator and compared to that for the membranes exposed to the irritant alone (negative control) and that for the membranes exposed to aspirin, used as the positive control (JORF published method, modified).

Human melanocytes = assay: Melanogenesis of human melanocytes in monolayer (melanin content); format: cell-based; conditions: 5 days, n=4
Protocol: iii. Change in the Melanogenesis of Human Melanocytes in Monolayer
Human melanocytes were cultured and exposed with the test products for 5 days. After incubation the melanin content was measured in cell homogenates (n=4).

G3PDH = assay: Slimming: G3PDH activity in differentiating human preadipocytes; format: cell-based; conditions: for Act G3PDH: 10 days of differentiation, control 220.2 +/− 32.8; for Act G3PDH % Change: vs control
Protocol: Human preadipocytes are cultured and induced to differentiate in the presence of oridonin. After 10 days of differentiation, G3PDH activity was measured in cell homogenates as a marker of differentiation. (n=4).

[1] = system: reduced glutathione (GSH); assay: Stimulation of reduced glutathione (GSH) synthesis, ELISA; format: cell-based; conditions: human keratinocytes, 24 h
Protocol: c. Stimulation of Reduced Glutathione (GSH) Synthesis
Human keratinocytes at confluence are exposed 24 h to tested products. Intracellular GSH concentration was determined by ELISA.

[2] = Oxygen-Radical Absorbance Capacity (ORAC) test; format: biochemical; conditions: n = 6, vs control
From the text: a. Reduction in Peroxyl Radicals: ORAC Test
The Oxygen-Radical Absorbance Capacity (ORAC) test is a method enabling evaluation of the antioxidant capability of molecules and extracts of plant origin. […] The free radical-induced […] of fluorescein decreases its fluorescence. The antioxidant molecules will reduce this degradation

Compound: CC(=O)Oc1ccccc1C(=O)O [aspirin]
- Mean score (inflammation index) (chorioallantoic membrane): 2 +/− 2.06

Compound: C=C1C(=O)[C@]23[C@H](O)[C@H]1CC[C@H]2[C@@]12CO[C@]3(O)[C@@H](O)[C@@H]1C(C)(C)CC[C@@H]2O [oridonin]
- % Change/control (melanin content) (Human melanocytes; oridonin alone, 2.25 ppm): −23%; p < 0.01
- % Change/control (melanin content) (Human melanocytes; oridonin alone, 3 ppm): −34%; p < 0.01
- % Change/control (melanin content) (Human melanocytes; oridonin alone, 5 ppm (so in the source)): −21%; p < 0.01
- % Change/control (melanin content) (Human melanocytes; oridonin alone, 125 ppm (so in the source)): −16%; p < 0.01
- Act G3PDH (G3PDH; oridonin 2.7 ppm): 162.1 +/− 31.4 mU/10^6 cell
- Act G3PDH % Change (G3PDH; oridonin 2.7 ppm): −26%; p < 0.05
- Act G3PDH (G3PDH; oridonin 3.6 ppm): 127.7 +/− 19.2 mU/10^6 cell
- Act G3PDH % Change (G3PDH; oridonin 3.6 ppm): −42%; p < 0.01
- GSH change as % of control ([1]; oridonin 3 ppm): +41%; p < 0.01
- GSH change as % of control ([1]; oridonin 4.5 ppm): +79%; p < 0.01
- effect on the reduction of the destruction of fluorescein by free radicals ([2]; oridonin 1.5 ppm): +14%; p < 0.01
- effect on the reduction of the destruction of fluorescein by free radicals ([2]; oridonin 3 ppm): +4%; dns
- effect on the reduction of the destruction of fluorescein by free radicals ([2]; oridonin 4.5 ppm): −4%; dns

Compound: darutoside
- % Change/control (melanin content) (Human melanocytes; darutoside alone, 3.75 ppm): +1%; dns
- % Change/control (melanin content) (Human melanocytes; darutoside alone, 5 ppm): +2%; dns
- % Change/control (melanin content) (Human melanocytes; darutoside alone, 7.5 ppm): −4%; dns
- % Change/control (melanin content) (Human melanocytes; darutoside alone, 10 ppm): −7%; p < 0.05
- GSH change as % of control ([1]; darutoside 10 ppm): +3%; dns
- GSH change as % of control ([1]; darutoside 15 ppm): +2%; dns
